Columns and labels:
[1] = Lipophilicity, log D of the compound; assay type: physicochemical; details: octanol/water
[2] = Mean residence time in Sprague-Dawley rat at 1 mg/kg, iv; assay type: ADME, organism-based; parameters: dose 1 mg/kg, route intravenous; details: in vivo
[3] = Oral bioavailability in Sprague-Dawley rat at 10 mg/kg; assay type: ADME, organism-based; details: in vivo
[4] = tested on: Hepatitis C virus; assay: Inhibition of HCV1b NS3/4A protease by FRET assay; parameters: species or system Hepatitis C virus subtype 1b
[5] = Clearance in Sprague-Dawley rat at 1 mg/kg, iv; assay type: ADME, organism-based; parameters: dose 1 mg/kg, route intravenous; details: in vivo
[6] = tested on: Hepatitis C virus; assay: Antiviral activity against HCV1b infected in human 1b-Rluc cells by replicon assay; assay type: functional, organism-based, Hepacivirus hominis; details: genotype 1b

| logD [1] | MRT [2] [min] | bioavailability [3] [%] | IC50 [4] [nM] | clearance [5] [mL/min/kg] | EC50 [6] [nM] | SMILES |
| --- | --- | --- | --- | --- | --- | --- |
| 4.5 | 52.8 | 44 | 3 | 14.8 | 213 | C=C[C@@H]1C[C@]1(NC(=O)[C@@H]1C[C@@H](Oc2cc(-c3nc(C(C)C)cs3)nc3c(C)c(OC)ccc23)[C@H]2CC[C@H](C(C)C)C(=O)N21)C(=O)NS(=O)(=O)C1CC1 |
|  |  |  | 32 |  |  | C=C[C@@H]1C[C@]1(NC(=O)[C@@H]1C[C@@H](Oc2cc(-c3nc(C(C)C)cs3)nc3c(Cl)c(OC)ccc23)[C@H]2CCCC(=O)N21)C(=O)NS(=O)(=O)C1CC1 |
|  |  |  | 2.6 |  |  | C=C[C@@H]1C[C@]1(NC(=O)[C@@H]1C[C@@H](Oc2cc(-c3csc(NC(C)C)n3)nc3c(Cl)c(OC)ccc23)CN1C(=O)[C@@H](NC(=O)OC1CCCC1)C(C)(C)C)C(=O)O |
| 3.26 | 44.4 | 35 | 3 | 26.2 | 81 | C=C[C@@H]1C[C@]1(NC(=O)[C@@H]1C[C@@H](Oc2cc(-c3nc(C(C)C)cs3)nc3c(Cl)c(OCCN4CCOCC4)ccc23)[C@H]2CC[C@H](C(C)C)C(=O)N21)C(=O)NS(=O)(=O)C1CC1 |
|  |  |  | 1 |  | 144 | C=C[C@@H]1C[C@]1(NC(=O)[C@@H]1C[C@@H](Oc2cc(-c3cccc(C(C)C)n3)nc3c(Cl)c(OCCOC)ccc23)[C@H]2CC[C@H](C(C)C)C(=O)N21)C(=O)NS(=O)(=O)C1CC1 |
|  |  |  | 2 |  | 818 | C=C[C@@H]1C[C@]1(NC(=O)[C@@H]1C[C@@H](Oc2cc(OCC)nc3c(C)c(OC)ccc23)[C@H]2CC[C@H](C(C)C)C(=O)N21)C(=O)NS(=O)(=O)C1CC1 |
| 3.54 | 75.6 | 21 | 1 | 11.2 | 75 | C=C[C@@H]1C[C@]1(NC(=O)[C@@H]1C[C@@H](Oc2cc(-c3nc(C(C)C)cs3)nc3c(Cl)c(OCCOC)ccc23)[C@H]2CC[C@H](C(C)C)C(=O)N21)C(=O)NS(=O)(=O)C1CC1 |
| 3.85 |  |  | 2 |  | 76 | C=C[C@@H]1C[C@]1(NC(=O)[C@@H]1C[C@@H](Oc2cc(-c3nc(C(C)C)cs3)nc3c(Cl)c(OC)ccc23)[C@H]2CC[C@H](C(C)C)C(=O)N21)C(=O)NS(=O)(=O)C1CC1 |
|  |  |  | 47 |  |  | C=C[C@@H]1C[C@]1(NC(=O)[C@@H]1C[C@@H](Oc2cc(-c3nc(C(C)C)cs3)nc3c(C)c(OC)ccc23)[C@H]2CCCC(=O)N21)C(=O)NS(=O)(=O)C1CC1 |

— ChEMBL document CHEMBL1938333, “Novel, potent and orally bioavailable indolizidinone-derived inhibitors of the hepatitis C virus NS3 protease” (Bioorg Med Chem Lett, 2012)
